In patent publication EP4467141A1, “PYRAZOLO-QUINOLINES AS SELECTIVE INHIBITORS OF GENOTOXIC STRESS-INDUCED IKK/NF- KB PATHWAYS FOR CANCER THERAPY” (Max-Delbrück-Centrum für Molekulare Medizin in der …, priority 2023, dated 2024):

Experiments:
Type in all cases: cell-based
[1] = tested on: NF-κB subunit p65 phosphorylation (S536); assay: Western blot of p65 phosphorylation (S536) after DNA damage (irradiation or etoposide) in U2-OS cells; conditions: 1-hour pre-treatment, irradiation (IR, 20 Gy), 90 min
Description: (§1) Fig.1: Identification of inhibitors specific for DNA damage-induced NF-κB activity. (A) Flowchart representing the high-throughput chemical library screening. A screen/counter-screen strategy was used by stimulating NF-κB in U2-OS cells with etoposide (50 µM for 90 min) and hits were counter-screened with TNFα (10 ng/ml for 20 min). Cells were pre-treated with compounds (10 µM) for 1 hour before stimulation, fixed, and percent p65 nuclear translocation measured by fluorescence microscopy. IC50 values were used for final selection. (B) Comparison of mean p65 nuclear translocation following either etoposide or TNFa stimulation after treatment with each counter-screened hit compound. Values were normalized to etoposide or TNFα positive controls. Specific inhibitors (red) of DNA damage-induced NF-κB signaling were defined by setting cut-off criteria (black line). […] (C) IC50 determination for MW01 (left) and MW05 (right) of p65 nuclear translocation, following either etoposide or TNFα treatment. […] IC50 noted with a dotted line. (D) Structures of compounds selected as leads for further analysis, MW01 (5-Hydroxy-10,11-dimethoxy-9H-benzo[c]indolo[3,2,1-ij][1,5]naphthyridin-9-one) and MW05 (3-Amino-7-methoxypyrazolo[3,4-b]quinolin-1-yl)-[3-(dimethylamino)phenyl]methanone). (E) Western blot analysis (top) and quantification (bottom) of NF-κB subunit p65 phosphorylation (S536) following 1-hour pre-treatment with DMSO, MW01 (10 µM), or MW05 (10 µM), in unstimulated, after 90 min irradiation (IR, 20 Gy), or after 20 min TNFα (10 ng/mL) conditions in U2- OS cells. B-actin was used as loading control after. The p-p65 signal was first normalized to β-actin loading control per sample, then each value to DMSO-treated unstimulated to evaluate relative activation of NF-κB. Ns: not significant; ***: p<0.001.
NF-κB was stimulated by DNA damage through either 20 Gy irradiation (IR) and analyzed after 90 minutes or by 10 ng/ml TNFα and analyzed after 20 minutes unless otherwise noted.
All compounds were pre-treated for 1-hour prior to NF-κB stimulation unless otherwise noted.
(§2) Cells were collected by scraping and lysed in Baeuerle lysis buffer supplemented with Protease (Thermo Fisher Scientific, 78429) and Phosphatase (Thermo Fisher Scientific, 78420) inhibitors after the appropriate treatment and time point. Proteins were quantified by Bradford assay (Bio-Rad, 5000006) and 20-50 µg of extracted proteins were loaded on 4-20% Protein Gel (Bio-Rad, 4568096) and then transferred onto a PVDF membrane (Bio-Rad, 1620177) using Tris-Glycine buffer with 20% of methanol. Blocking was performed for 1h with 5% not-fat dry milk in PBS 1X. Immunodetection was obtained using primary and secondary antibodies reported in Key Resources Table. The membranes were analyzed by ECL (Thermo Fisher Scientific, 34580) and detected by ChemiDoc XRS+ (Bio-Rad) using ImageLab software (Bio-Rad).

[2] = tested on: NF-κB subunit p65 phosphorylation (S536); assay: Western blot of p65 phosphorylation (S536) after TNFα in U2-OS cells; conditions: 1-hour pre-treatment, TNFα 10 ng/ml, 20 min
Description: as §1, with “(D) Structures of compounds selected as leads for further analysis, MW01 (5-Hydroxy-10,11-dimethoxy-9H-benzo[c]indolo[3,2,1-ij][1,5]naphthyridin-9-one) and MW05 (3-Amino-7-methoxypyrazolo[3,4-b]quinolin-1-yl)-[3-(dimethylamino)phenyl]methanone).” left out, “B-actin was used as loading control after. The p-p65 signal was first normalized to β-actin loading control per sample, then each value to DMSO-treated unstimulated to evaluate relative activation of NF-κB. Ns: not significant; ***: p<0.001.” left out
NF-κB was stimulated by DNA damage through either 20 Gy irradiation (IR) and analyzed after 90 minutes or by 10 ng/ml TNFα and analyzed after 20 minutes unless otherwise noted. […]
Cells were collected by scraping and lysed in Baeuerle lysis buffer supplemented with Protease (Thermo Fisher Scientific, 78429) and Phosphatase (Thermo Fisher Scientific, 78420) inhibitors after the appropriate treatment and time point. Proteins were quantified by Bradford assay (Bio-Rad, 5000006) and 20-50 µg of extracted proteins were loaded on 4-20% Protein Gel (Bio-Rad, 4568096) and then transferred onto a PVDF membrane (Bio-Rad, 1620177) using Tris-Glycine buffer with 20% of methanol. […]

[3] = tested on: Akt phosphorylation (S473); assay: Western blot of Akt phosphorylation (S473) in U2-OS cells; conditions: 1-hour pre-treatment
Description: Fig.2: MW01 and MW05 are potent and selective kinase inhibitors. […] Heatmap indicates lower IC50. […] (C) Western blot analysis of NF-κB p65 phosphorylation (S536) and Akt phosphorylation (S473) following 1-hour pre-treatment with DMSO, MW01 (10 µM), MW05 (10µM), PI-103 (1 µM), NU7441 (1 µM), or MU1210 (1 µM) in unstimulated, after 90 min irradiation (IR, 20 Gy), or after 20 min TNFα (10 ng/ml) conditions in U2-OS cells. (D) mRNA expression analysis of CLK2 (top), 48 hours after transfection with siNC, CLK2 si1, or CLK2 si2. mRNA expression analysis of NFKBIA (bottom), 48 hours after transfection with siNC, CLK2 si1, orCLK2 si2. Values are normalized to unstimulated siNC expressing cells. Statistical comparison was made between experimental conditions and respective paired siNC expressing controls. ns: not significant; **, ***, ****: p<0.01, p<0.001, p<0.000. (E) Western blot analysis of U2-OS cells after transfection with siNC or CLK2 si2 unstimulated, after irradiation (IR), or after TNFα treatment. Vinculin used as loading control. (F) IC50 (nM) of all CLK isoforms for MW01 and MW05. (G) Quantification from (E) with CLK2 knockdown and p-p65 quantification (top left and top right, respectively) and CLK4 knockdown and p-p65 (bottom left and bottom right, respectively. ns: not significant; **, ***, ****: p<0.01, p<0.001, p<0.0001.
as §2, with “Immunodetection was obtained using primary and secondary antibodies reported in Key Resources Table.” left out, “(Bio-Rad). […]” for “(Bio-Rad).”

Structure (SMILES)	phosphorylation of p65 at serine 536 after DNA damage [1]	phosphorylation of p65 at serine 536, TNFα-stimulated [2]	reduction of p-Akt [3]
Cn1cc(-c2ccc3occ(-c4ccccc4-c4ccccc4)c3n2)cn1 [MU140, reference compound]	not		
O=c1cc(N2CCOCC2)oc2c(-c3cccc4c3sc3ccccc34)cccc12 [NU-7441, reference compound]	did not reduce p-p65	did not reduce p-p65	
Cn1cc(-c2ccc3occ(-c4cccc(-c5ccncc5)c4)c3n2)cn1 [MU-1210, reference compound]	reduction in p65 phosphorylation		
Oc1cccc(-c2nc(N3CCOCC3)c3oc4ncccc4c3n2)c1 [PI-103, reference compound]			complete reduction
